# According to patent US4981855A, “Medicament for psoriasis” (Takeda Chemical Industries, Ltd., priority 1988, dated 1991):
# How the values were obtained:
# [1] = system: Type III Allergic Reaction (Reversed Passive Arthus Reaction); assay: Type III allergic reaction (reversed passive Arthus reaction) in rats, oral (Experiment 1); assay type: in vivo, Rat (Jcl:SD); details: Rat; for inhibition in vivo at 3 mg/kg: 1 h, 3 mg/kg P.O., one hour before egg albumin, blue spot area vs. control, * P < 0.05, ** P < 0.01, read-out: Inhibition rate (%); for ED50: P.O., read-out: ID50 values
# Protocol: Effect on Type III Allergic Reaction (Reversed Passive Arthus Reaction) in Rats
# A group consisting of six Jcl:SD rats (7 week old, male) was used. The hair of the back of the animals was cut, under ether anesthesia, and 1 ml each of a 0.5% solution of egg albumin in physiological saline solution was injected into the tail vein of each test animal, followed by intradermal injection of 0.1 ml of rabbit anti-egg albumin antiserum at each of the left and right sides of the back and a further intradermal injection of 0.1 ml of physiological saline solution at the left side. Three hours later, each animal was intraveneously injected with 1 ml of 1% Evans' blue physiological saline solution. Thirty minutes later, the test animals were exfoliated and the area(mm^2) of each of the blue spots was measured. […] By comparing the area(mm^2) of the blue spot in the test group (treated group) with that of the control group (untreated group), inhibition rate was determined.
# Jcl:ICR mice = assay: Acute toxicity in mice (Experiment 3); assay type: in vivo, Mouse (Jcl:ICR); details: mice and rats; intraperitoneal, subcutaneous and oral (Table 3)
# Excerpt: (§1) The acute toxicity of the compound (A) was examined by using Jcl:ICR mice and JcL:Wistar rats.
# [2] = Acute toxicity in mice (Experiment 3); assay type: in vivo, Mouse (Jcl:ICR); details: mouse, in vivo
# Excerpt: as §1
# [3] = system: Reversed Passive Arthus Reaction; assay: Rat reversed passive Arthus reaction, percutaneous ointment (Experiment 2); assay type: in vivo, Rat (Jcl:SD); details: for Inhibition rate (%): ointment (white petrolatum base)
# Protocol: A group consisting of six Jcl:SD rats (7 week old, male) was used. The hair of the back of the animals was cut, under ether anesthesia, and 1 ml each of a 0.5% solution of egg albumin in physiological saline solution was injected into the tail vein of each test animal, followed by intradermal injection of 0.1 ml of rabbit anti-egg albumin antiserum at each of the left and right sides of the back and a further intradermal injection of 0.1 ml of physiological saline solution at the left side. Three hours later, each animal was intraveneously injected with 1 ml of 1% Evans' blue physiological saline solution. Thirty minutes later, the test animals were exfoliated and the area(mm^2) of each of the blue spots was measured. The test sample in a dose of 3 mg/kg was orally administered one hour before the injection of egg albumin. By comparing the area(mm^2) of the blue spot in the test group (treated group) with that of the control group (untreated group), inhibition rate was determined.
# In place of the oral administration of 3 mg/kg of each specimen, two type of ointments (of which base is white petrolatum) different in specimen content as given in Table 2 and control petrolatum were applied to the reaction sites in an experiment in a similar manner as in Experiment 1.
# [4] = system: skin of the backs of rabbits (normal skin and damaged skin); assay: Four-week cumulative skin irritation test in rabbits (Experiment 4); assay type: in vivo, Rabbit; details: 0.25 g once a day for 4 weeks
# Excerpt: Four-Week Cumulative Skin Irritation Test in Rabbits [Procedure]
# 0.25 g of each of white petrolatum (placebo) and 2.5% and 5.0% compound (A) ointments (of which base is white petrolatum) was applied to 2.5×2.5cm test sites (normal skin and damaged skin) formed on the skin of the backs of rabbits once a day for 4 weeks. The skin was observed daily according to the method of Draize [J. H. Draize et al., J. Pharmacol. Exp. Therap. 82, 337 (1944)]. On the day succeeding the completion of the administration, postmortem examinations were carried out and histopathologic examinations were conducted for the skin of the administrated sites.
# [5] = Acute toxicity in rats (Experiment 3); set-up: species or system Rat (JcL:Wistar); details: rat, in vivo
# Excerpt: as §1
smiles,measurement,setting,value
CCn1c(=O)c2c(N)n(C(=O)OC)nc2n(CC)c1=O [Compound 1],inhibition in vivo at 3 mg/kg,[1],35%
same,ED50,[1],13.7 mg/kg
CCCn1c(=O)c2c(N)n(C(=O)OC)nc2n(CCC)c1=O [Compound 2],inhibition in vivo at 3 mg/kg,[1],50%
same,ED50,[1],2.4 mg/kg
CCCn1c(=O)c2c(NC(C)=O)[nH]nc2n(CCC)c1=O [Compound 3],inhibition in vivo at 3 mg/kg,[1],55%
same,ED50,[1],2.9 mg/kg
CCCn1c(=O)c2c(N(C)C)n(C)nc2n(CCC)c1=O [Compound 4],inhibition in vivo at 3 mg/kg,[1],56%
CCCn1c(=O)c2c(N(C)C)nn(C)c2n(CCC)c1=O [Compound 5],inhibition in vivo at 3 mg/kg,[1],53%
CCCCn1c(=O)n(CCC)c(=O)c2c(NC)n(C(=O)OC)nc21 [Compound 6],inhibition in vivo at 3 mg/kg,[1],43%
same,ED50,[1],5.3 mg/kg
CCCCn1c(=O)c2c(NC)n(C(=O)OC)nc2n(CCC)c1=O [Compound 7],inhibition in vivo at 3 mg/kg,[1],49%
same,ED50,[1],3 mg/kg
CCCCn1c(=O)c2c(NC)n(C(=O)OC)nc2n(CCCC)c1=O [Compound 8],inhibition in vivo at 3 mg/kg,[1],30%
same,ED50,[1],30 mg/kg
CCCCn1c(=O)c2c(NC)n(C)nc2n(CCCC)c1=O [Compound 9],inhibition in vivo at 3 mg/kg,[1],31%
CCCCn1c(=O)n(CCC)c(=O)c2c(NC)n(C(=O)OC)nc21 [Compound (A)],acute toxicity,Jcl:ICR mice,low in toxicity and can be safely administered
same,LD50,"[2]; ip, female, intraperitoneal",1260 mg/kg
same,LD50,"[2]; ip, male, intraperitoneal",1040 mg/kg
same,LD50,"[2]; po, female",6310 mg/kg
same,LD50,"[2]; po, male",4650 mg/kg
same,LD50,"[2]; sc, female, subcutaneous",> 5000 mg/kg
same,LD50,"[2]; sc, male, subcutaneous",> 5000 mg/kg
same,Inhibition rate (%),"[3]; 1.25 mg/site, *p < 0.05 vs. control",46%
same,Inhibition rate (%),"[3]; 2.5 mg/site, **p < 0.01 vs. control",59%
same,effect on reversed passive Arthus reaction,[3]; percutaneous administration,significantly depresses the reversed passive Arthus reaction
same,cumulative skin irritation,[4]; 2.5% ointment (white petrolatum base),no cumulative skin irritation
same,cumulative skin irritation,[4]; 5% ointment (white petrolatum base),no cumulative skin irritation
same,LD50,"[5]; ip, female, intraperitoneal",580 mg/kg
same,LD50,"[5]; ip, male, intraperitoneal",650 mg/kg
same,LD50,"[5]; po, female",2380 mg/kg
same,LD50,"[5]; po, male",2730 mg/kg
same,LD50,"[5]; sc, female, subcutaneous",> 6500 mg/kg
same,LD50,"[5]; sc, male, subcutaneous",> 6500 mg/kg
